We go through 16 compounds from patent US10280164B2, “Pyrazolopyridone compounds and uses thereof” (Incyte Corporation, priority 2016, dated 2019).

The target in this assay is HPK1 (Homo sapiens (Human), UniProt Q92918). As to the kind of experiment: HPK1 Kinase Binding Assay (LanthaScreen Eu-Anti GST antibody / tracer 222). The following applies: active HPK1 (SignalChem M23-11G), tracer 222, one hour incubation at 25° C. The method, then: A stock solution of 1 mM test compound was prepared in DMSO. The compound plate was prepared by 3-fold and 11-point serial dilutions. 0.1 μL of the compound in DMSO was transferred from the compound plate to the white 384 well polystyrene plates. The assay buffer contained 50 mM HEPES, pH 7.5, 0.01% Tween-20, 5 mM MgCl2, 0.01% BSA, and 5 mM DTT. 5 μl of 4 nM active HPK1 (SignalChem M23-11G) prepared in the buffer was added to the plate. The enzyme concentration given was based on the given stock concentration reported by the vender. 5 μl of 18 nM tracer 222 (ThermoFisher PV6121) and 4 nM LanthaScreen Eu-Anti GST antibody (ThermoFisher PV5595) were added. After one hour incubation at 25° C., the plates were read on a PHERAstar FS plate reader (BMG Labtech). Ki values were determined.
Sequence of HPK1 (Q92918 1-346): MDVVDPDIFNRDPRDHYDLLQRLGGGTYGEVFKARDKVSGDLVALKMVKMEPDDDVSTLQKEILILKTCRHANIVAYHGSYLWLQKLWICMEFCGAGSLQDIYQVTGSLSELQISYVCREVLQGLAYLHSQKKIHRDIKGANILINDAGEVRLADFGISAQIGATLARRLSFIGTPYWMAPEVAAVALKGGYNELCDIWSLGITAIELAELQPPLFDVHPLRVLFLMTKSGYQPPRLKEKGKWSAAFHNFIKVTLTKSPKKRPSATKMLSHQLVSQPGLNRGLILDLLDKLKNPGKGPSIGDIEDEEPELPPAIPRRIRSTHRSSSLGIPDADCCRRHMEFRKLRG
For `CN1CCN(c2ccc(-c3n[nH]c4cc(=O)n(-c5cccc6c5CCNC6)cc34)cc2)CC1` [Example 6, 3-[4-(4-Methylpiperazin-1-yl)phenyl]-5-(1,2,3,4-tetrahydroisoquinolin-5-yl)-1,5-dihydro-6H-pyrazolo[4,3-c]pyridin-6-one], the inhibition constant (Ki) (commonly the equilibrium dissociation constant of an inhibitor or competing ligand from its target) is not above 100 nM.
Next, `COc1ccccc1-n1cc2c(-c3ccc(N4CCN(C)CC4)cc3)n[nH]c2cc1=O` [Example 4, 5-(2-Methoxyphenyl)-3-[4-(4-methylpiperazin-1-yl)phenyl]-1,5-dihydro-6H-pyrazolo[4,3-c]pyridin-6-one]: not above 100 nM; `CC(c1ccccc1)n1cc2c(-c3ccc(N4CCN(C)CC4)cc3)n[nH]c2cc1=O` (stereo not shown) [Example 14, 3-[4-(4-Methylpiperazin-1-yl)phenyl]-5-(1-phenylethyl)-1,5-dihydro-6H-pyrazolo[4,3-c]pyridin-6-one]: not above 100 nM.
On to `CN1CCN(c2ccc(-c3n[nH]c4cc(=O)n(CC5CCCCC5)cc34)cc2)CC1` [Example 12, 5-(Cyclohexylmethyl)-3-[4-(4-methylpiperazin-1-yl)phenyl]-1,5-dihydro-6H-pyrazolo[4,3-c]pyridin-6-one], for which the Ki lay within 100 to 500 nM.
On to `CN1CCN(c2ccc(-c3n[nH]c4cc(=O)n(Cc5ccccc5)cc34)cc2)CC1` [Example 11, 5-Benzyl-3-[4-(4-methylpiperazin-1-yl)phenyl]-1,5-dihydro-6H-pyrazolo[4,3-c]pyridin-6-one], for which the inhibitory constant (Ki) is 100 to 500 nM.
As for `CN1CCN(c2ccc(-c3n[nH]c4cc(=O)n(-c5ncccc5F)cc34)cc2)CC1` [Example 8, 5-(3-Fluoropyridin-2-yl)-3-[4-(4-methylpiperazin-1-yl)phenyl]-1,5-dihydro-6H-pyrazolo[4,3-c]pyridin-6-one], the inhibition constant Ki was not above 100 nM.
As for `CN1CCN(c2ccc(-c3n[nH]c4cc(=O)n(C5CCN(C)C5=O)cc34)cc2)CC1` (stereo not shown) [Example 15, 5-(1-Methyl-2-oxopyrrolidin-3-yl)-3-[4-(4-methylpiperazin-1-yl)phenyl]-1,5-dihydro-6H-pyrazolo[4,3-c]pyridin-6-one], the inhibition constant Ki is 500 to 3000 nM.
For `Cc1ccccc1-n1cc2c(-c3ccc(N4CCN(C)CC4)cc3)n[nH]c2cc1=O` [Example 3, 3-[4-(4-Methylpiperazin-1-yl)phenyl]-5-(o-tolyl)-1,5-dihydro-6H-pyrazolo[4,3-c]pyridin-6-one], the inhibition constant (Ki) is not above 100 nM.
`CC1OCCCC1n1cc2c(-c3ccc(N4CCN(C)CC4)cc3)n[nH]c2cc1=O` (stereo not shown) [Example 16, 3-[4-(4-Methylpiperazin-1-yl)phenyl]-5-(2-methyltetrahydro-2H-pyran-3-yl)-1,5-dihydro-6H-pyrazolo[4,3-c]pyridin-6-one] yielded a Ki of 100 to 500 nM.
Take `CN1CCN(c2ccc(-c3n[nH]c4cc(=O)n(-c5ccccc5)cc34)cc2)CC1` [Example 1, 3-[4-(4-Methylpiperazin-1-yl)phenyl]-5-phenyl-1,5-dihydro-6H-pyrazolo[4,3-c]pyridin-6-one]: the Ki lay within 100 to 500 nM.
As for `COc1cccc(F)c1-n1cc2c(-c3ccc(N4CCN(C)CC4)cc3)n[nH]c2cc1=O` [Example 5, 5-(2-Fluoro-6-methoxyphenyl)-3-[4-(4-methylpiperazin-1-yl)phenyl]-1,5-dihydro-6H-pyrazolo[4,3-c]pyridin-6-one], the Ki was not above 100 nM.
As for `CN1CCN(c2ccc(-c3n[nH]c4cc(=O)n(C5CCOC5)cc34)cc2)CC1` (stereo not shown) [Example 10, 3-[4-(4-Methylpiperazin-1-yl)phenyl]-5-(tetrahydrofuran-3-yl)-1,5-dihydro-6H-pyrazolo[4,3-c]pyridin-6-one], the Ki is 500 to 3000 nM.
In turn, `CC(c1ccccc1C(F)(F)F)n1cc2c(-c3ccc(N4CCN(C)CC4)cc3)n[nH]c2cc1=O` (stereo not shown) [Example 13, 3-[4-(4-Methylpiperazin-1-yl)phenyl]-5-{1-[2-(trifluoromethyl)phenyl]ethyl}-1,5-dihydro-6H-pyrazolo[4,3-c]pyridin-6-one] returned a Ki not above 100 nM.
`CN1CCN(c2ccc(-c3n[nH]c4cc(=O)n(C5CCCCC5)cc34)cc2)CC1` [Example 9, 5-Cyclohexyl-3-[4-(4-methylpiperazin-1-yl)phenyl]-1,5-dihydro-6H-pyrazolo[4,3-c]pyridin-6-one] registered a Ki of 100 to 500 nM.
`CN1CCN(c2ccc(-c3n[nH]c4cc(=O)n(-c5ccccc5F)cc34)cc2)CC1` [Example 2, 5-(2-Fluorophenyl)-3-[4-(4-methylpiperazin-1-yl)phenyl]-1,5-dihydro-6H-pyrazolo[4,3-c]pyridin-6-one] had a Ki not above 100 nM.
Regarding `CN1CCN(c2ccc(-c3n[nH]c4cc(=O)n(-c5cccc6c5OCCO6)cc34)cc2)CC1` [Example 7, 5-(2,3-Dihydrobenzo[b][1,4]dioxin-5-yl)-3-[4-(4-methylpiperazin-1-yl)phenyl]-1,5-dihydro-6H-pyrazolo[4,3-c]pyridin-6-one], the Ki is not above 100 nM.
